Laboratory results published in ChEMBL document CHEMBL1201862, “PubChem BioAssay data set” (2004).
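Compound exposure: 48 hours, 5 concentrations, 96-well plates. The concentration for 50% growth inhibition is given as GI50.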 Activity calls are given as the source filed them. Cut-off read from the data, not from the text of the source: active = GI50 up to about 1.1 µM and inactive = higher.

How the values were obtained:
Assay in all cases: DTP human tumour cell line panel, 48 h
CCRF-CEM = system: CCRF-CEM
COLO 205 = system: COLO 205
HCT-116 = system: HCT-116
HCT-15 = system: HCT-15
IGROV-1 = system: IGROV-1
K562 = system: K562
KM-20L2 = system: KM-20L2
KM12 = system: KM12
M19-MEL = system: M19-MEL
NCI-H522 = system: NCI-H522
OVCAR-4 = system: OVCAR-4
OVCAR-5 = system: OVCAR-5
SF-268 = system: SF-268
SF-295 = system: SF-295
SF-539 = system: SF-539
SK-MEL-2 = system: SK-MEL-2
SN12C = system: SN12C
SNB-19 = system: SNB-19
SW-620 = system: SW-620
UO-31 = system: UO-31

Row | Structure (SMILES) | GI50 (CCRF-CEM) | GI50 (COLO 205) | GI50 (HCT-116) | GI50 (HCT-15) | GI50 (IGROV-1) | GI50 (K562) | GI50 (KM-20L2) | GI50 (KM12) | GI50 (M19-MEL) | GI50 (NCI-H522) | GI50 (OVCAR-4) | GI50 (OVCAR-5) | GI50 (SF-268) | GI50 (SF-295) | GI50 (SF-539) | GI50 (SK-MEL-2) | GI50 (SN12C) | GI50 (SNB-19) | GI50 (SW-620) | GI50 (UO-31)
1 | O=C(O)CCC(NC(=O)c1ccc(Nc2nc3ccc(C(F)(F)F)cc3nc2-c2ccccc2)cc1)C(=O)O (stereo not drawn) | > 100 µM (inactive) | > 100 µM (inactive) | > 100 µM (inactive) | > 100 µM | > 100 µM (inactive) | 29.6 µM (inactive) | > 100 µM (inactive) | > 100 µM (inactive) | > 100 µM (inactive) | > 100 µM (inactive) | > 100 µM (inactive) | > 100 µM (inactive) | > 100 µM (inactive) | > 100 µM (inactive) | > 100 µM (inactive) | > 100 µM (inactive) | > 100 µM (inactive) | > 100 µM (inactive) | > 100 µM (inactive) | > 100 µM (inactive)
2 | CCC12CCC[C@@]13C=C[C@H](O3)C(C)(C)C2=O (stereo partly drawn) | > 100 µM (inactive) | – | > 100 µM (inactive) | > 100 µM | > 100 µM (inactive) | > 100 µM (inactive) | > 100 µM (inactive) | – | > 100 µM (inactive) | > 100 µM (inactive) | > 100 µM (inactive) | > 100 µM (inactive) | > 100 µM (inactive) | > 100 µM (inactive) | > 100 µM (inactive) | > 100 µM (inactive) | > 100 µM (inactive) | > 100 µM (inactive) | > 100 µM (inactive) | > 100 µM (inactive)
3 | CCN1CC2(CO)CCC(OC)C34C5CC6C(OC)CC(O)(C5C6OC)C(O)(C(OC)C23)C14 (stereo not drawn) | > 375 µM (inactive) | > 375 µM (inactive) | > 375 µM (inactive) | > 375 µM | > 375 µM (inactive) | > 375 µM (inactive) | > 197 µM (inactive) | > 375 µM (inactive) | > 375 µM (inactive) | > 375 µM (inactive) | > 375 µM (inactive) | > 177 µM (inactive) | > 375 µM (inactive) | > 375 µM (inactive) | > 375 µM (inactive) | > 59.4 µM (inactive) | > 375 µM (inactive) | > 375 µM (inactive) | > 375 µM (inactive) | > 375 µM (inactive)
4 | S=C1NN=C2C(=C3CCCC4C5CCCCC5N2C34)N1 (stereo not drawn) | 37.2 µM (inactive) | 33 µM (inactive) | – | > 100 µM | > 100 µM (inactive) | 38 µM (inactive) | – | > 100 µM (inactive) | – | 62.2 µM (inactive) | > 100 µM (inactive) | > 100 µM (inactive) | > 100 µM (inactive) | > 100 µM (inactive) | – | – | – | > 100 µM (inactive) | > 100 µM (inactive) | > 100 µM (inactive)
5 | Nc1nc(=O)n(C2OC(CO)C(O)C2O)cc1F (stereo not drawn) | < 0.0136 µM (active) | 79.4 µM (inactive) | 0.495 µM (active) | 3.13 µM | > 100 µM (inactive) | 0.506 µM (active) | 2.29 µM (inactive) | > 100 µM (inactive) | 0.731 µM (active) | 0.785 µM (active) | > 100 µM (inactive) | 0.855 µM (active) | 2.75 µM (inactive) | 21.8 µM (inactive) | 37.4 µM (inactive) | > 100 µM (inactive) | 3.28 µM (inactive) | 1.91 µM (inactive) | 22.2 µM (inactive) | 10.3 µM (inactive)
6 | CN(C)CCNCc1c2ccccc2c(CNCCN(C)C)c2ccccc12 | 20.8 µM (inactive) | 9.53 µM (inactive) | 16.5 µM (inactive) | 41.1 µM | 26.6 µM (inactive) | 17.8 µM (inactive) | 7.29 µM (inactive) | 39.4 µM (inactive) | 24.5 µM (inactive) | 31 µM (inactive) | 28.3 µM (inactive) | 17.1 µM (inactive) | 27 µM (inactive) | 49.2 µM (inactive) | 28.2 µM (inactive) | 22.4 µM (inactive) | 38.9 µM (inactive) | – | 18 µM (inactive) | > 100 µM (inactive)
7 | COc1ccc(C2C(C#N)=C(O)NC(O)=C2C#N)cc1OC | – | > 100 µM (inactive) | > 100 µM (inactive) | > 100 µM | > 100 µM (inactive) | – | > 100 µM (inactive) | > 100 µM (inactive) | > 100 µM (inactive) | > 100 µM (inactive) | – | > 100 µM (inactive) | > 100 µM (inactive) | > 100 µM (inactive) | > 100 µM (inactive) | > 100 µM (inactive) | > 100 µM (inactive) | > 100 µM (inactive) | > 100 µM (inactive) | > 100 µM (inactive)
